Drawing on US5276048A, “4-(1H-pyrrol-1-yl)imidazoles with angiotensin II antagonist activity” (Warner-Lambert Company, priority 1992, dated 1994), this text covers duration of efficacy and lowers blood pressure for one compound.

The experiment has as its system renal hypertensive rats (2-kidney, 1-clip Goldblatt model). As to the kind of experiment: blood pressure lowering in renal hypertensive rats (2-kidney, 1-clip Goldblatt model). The format is in vivo, rat. The following applies: single oral dose of 30 mg/kg. On the procedure: Finally, the compounds of Formula I were tested in vivo for blood pressure lowering effects in renal hypertensive rats (2-kidney, 1-clip Goldblatt model) according to the method described by S. Sen, et al, in Hypertension 1:427-434 (1979) and in Clin. Soc. 57:53-6, 1979.
Illustrative of the in vivo antihypertensive activity for compounds of Formula I is the data for 4-[2-(1-oxo-2,2,2-trifluoroethyl)-1H-pyrrol-1-yl]-2-propyl-1-[(2'-(1H-tetrazol-5-yl)biphen-4-yl)methyl]-1H-imidazole-5-carboxylic acid (Example 14). This compound lowers blood pressure by ≥50 mm Hg and is efficacious for more than 24 hours with a single oral dose of 30 mg/kg in the above rodent model.

For the compound `CCCc1nc(-n2cccc2C(=O)C(F)(F)F)c(C(=O)O)n1Cc1ccc(-c2ccccc2-c2nnn[nH]2)cc1` [Example 14, 4-[2-(1-Oxo-2,2,2-trifluoroethyl)-1H-pyrrol-1-yl]-2-propyl-1-[(2'-(1H-tetrazol-5-yl)biphen-4-yl)methyl]-1H-imidazole-5-carboxylic acid], the duration of efficacy entry is “more than 24 hours” and the lowers blood pressure is listed as no less than 50 mm Hg.
